Molecular target: T1, mitochondrial branched-chain aminotransferase (mBCAT2) (Mus musculus, UniProt O35855)
T1 sequence (O35855 28-393): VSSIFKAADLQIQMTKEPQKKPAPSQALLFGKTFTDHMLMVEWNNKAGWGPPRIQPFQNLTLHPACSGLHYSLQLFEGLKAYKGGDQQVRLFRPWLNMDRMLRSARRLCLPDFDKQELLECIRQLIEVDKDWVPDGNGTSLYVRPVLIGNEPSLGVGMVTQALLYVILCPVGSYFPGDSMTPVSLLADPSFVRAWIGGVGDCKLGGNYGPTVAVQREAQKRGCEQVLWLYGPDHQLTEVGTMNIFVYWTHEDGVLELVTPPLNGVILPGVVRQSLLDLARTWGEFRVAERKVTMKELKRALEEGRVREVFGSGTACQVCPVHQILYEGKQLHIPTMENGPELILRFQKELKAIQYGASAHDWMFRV
Experiment: LC-MS transamination assay with Michaelis–Menten kinetics
Format: biochemical

`C=C(CC(=O)O)C(=O)O` [ITA, itaconate] was tested, and the Ki was 15.3 mM.

Source: article PMC12215950 (Chemical Science, 2025)
